Measurements from PubChem BioAssay (NCI).
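Values below derive from 48-hour exposures of cells grown in 96-well plates, with endpoints linearly interpolated between the two concentrations bracketing the appropriate inhibition level. GI50 = concentration required for 50% inhibition of growth. TGI: concentration producing complete growth inhibition.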

Key:
Experiment in all cases: NCI anticancer screen, dose series, 48 h
[1] = system: SK-MEL-28 melanoma
[2] = system: HS 578T breast
[3] = system: BT-549 breast
[4] = system: A549 NSCLC
[5] = system: HCT-15 colon
[6] = system: HCC-2998 colon
[7] = system: COLO 205 colon
[8] = system: SNB-19 CNS
[9] = system: DU-145 prostate
[10] = system: K-562 leukemia

SMILES	TGI [1] [µM]	TGI [2] [µM]	TGI [3] [µM]	TGI [4] [µM]	TGI [5] [µM]	TGI [6] [µM]	TGI [7] [µM]	TGI [8] [µM]	TGI [9] [µM]	TGI [10] [µM]	GI50 [1] [µM]	GI50 [2] [µM]	GI50 [3] [µM]	GI50 [4] [µM]	GI50 [6] [µM]	GI50 [10] [µM]	GI50 [7] [µM]	GI50 [8] [µM]	GI50 [9] [µM]
NC(=O)c1csc(C2(O)COC(CO)C2O)n1 (stereo not drawn)	> 100	> 100	> 100	> 100	> 100	> 100	> 100	> 100	> 100	–	–	–	–	–	–	–	–	–	–
COc1ccc(OC2OC(CO)C(OCc3ccccc3)C(OCc3ccccc3)C2OCc2ccccc2)cc1 (stereo not drawn)	> 100	> 100	> 100	> 100	–	> 100	> 100	> 100	> 100	> 100	–	–	–	–	–	–	–	–	–
O=c1cc(-c2ccncc2)[nH]c2cc3c(cc12)OCO3	> 100	> 100	–	> 100	> 100	> 100	> 100	> 100	> 100	–	–	–	–	–	–	–	–	–	–
O=C(CCc1cc(O)cc(O)c1)NCCCNC(=O)CCc1cc(O)cc(O)c1	> 100	–	> 100	> 100	> 100	> 100	> 100	> 100	> 100	> 100	–	–	–	–	–	–	–	–	–
CCOc1ccc(Nc2nc(N)nc(N)c2N)cc1	> 100	45.7	76.6	> 100	> 100	–	70.2	93.4	> 100	50.1	–	–	–	–	–	–	–	–	–
CC[C@H](Nc1nc(C)nc(N)c1C#N)c1nc2cccc(NCc3ccc(C(=O)NO)cc3)c2c(=O)n1-c1ccccc1	3.28	8.36	4.56	4.2	–	3.28	3.8	3.97	4.89	> 100	1.6	2.45	1.93	1.92	1.67	2.2	1.74	1.63	2.01
CCC(O)(Cc1ccc(OC)cc1)c1ccc(OC)cc1 (stereo not drawn)	–	> 100	> 100	> 100	> 100	> 100	> 100	> 100	> 100	> 100	–	–	–	–	–	–	–	–	–
COC(=O)C1=C(C(=O)OC)SC(=CC#CC=C2SC(C(=O)OC)=C(C(=O)OC)S2)S1	> 63.2	–	–	> 100	> 45.1	> 100	> 54.9	26.2	–	> 100	–	–	–	–	–	–	–	–	–
N#C/C(C(=O)Nc1ccc(Cl)cc1)=C(/N)N1CCCC1	> 100	–	> 100	> 100	> 100	> 100	> 100	> 100	> 100	> 100	–	–	–	–	–	–	–	–	–
CCc1c(CNc2ccc(C(=O)NC(CC(=O)O)C(=O)O)cc2)ccc2nc(N)nc(N)c12 (stereo not drawn)	> 1000	> 1000	> 1000	> 1000	> 1000	–	–	> 1000	> 1000	> 1000	> 1000	–	685	–	–	–	–	0.188	0.148
C1=C2C3=[N+](CCCCC3)CC2Cc2ccsc21 (stereo not drawn)	> 100	> 100	> 100	> 100	> 100	–	> 100	> 100	> 100	> 100	–	–	–	–	–	–	–	–	–
